Source: patent US9422267B2, “Fused pyrimidine compounds and use thereof” (Medivation Technologies, Inc., priority 2012, dated 2016)

Key:
[1] = test system: Akt phosphorylation induced by IGF-1R in HT-29 cells; test: Western blot analysis of Akt phosphorylation induced by IGF-1R; format: cell-based, Human; conditions: then IGF-1 10 ng/mL 10 min, HT-29
Method: Inhibition of Akt phosphorylation induced by IGF-1R was studied by western blot analysis. Human colon carcinoma HT-29 cells were seeded at a density of 8×10^4 cells/well in a 24-well plate and grown in DME/F12 media containing 10% FBS for 24 h. The cells were then depleted of serum by incubation in DME/F12 media lacking FBS for 24 h. […] […] Lysed cells were centrifuged at 13,000 rpm for 15 min and the protein concentration soluble fraction (supernatant) of each sample was determined using a BCA protein assay (Pierce).

HT-29 = test: Cell Titer-Glo cell viability: HT-29; format: cell-based; conditions: Homo sapiens, HT-29, 72 h
Method: (§1) This assay quantitates the ATP present in order to determine the number of viable cells in culture. Briefly, the compounds were incubated with the cells for 72 h, followed by cell lysis. The resulting luminescent signal is proportional to the amount of ATP present and, therefore, directly proportional to the number of cells present in culture.
(§2) Compound nos. […] These cell lines are derived from human lung carcinoma, colon adenocarcinoma, colon adenocarcinoma, colon carcinoma, acute promyelocytic leukemia, colon adenocarcinoma, colon adenocarcinoma (from metastatic site lymph node), respectively.
(§3) Compounds 2b, 5, 6b and 10a were tested along with derivatives in viability assays as described above by Caliper LifeSciences Systems (Hanover, Md.), in A549, HCT-15, HCT-116, MCF-7, MDA-MB-231, OVCAR3, T47D, COLO205, HT-29, BT-20, HCC1187, HL-60, MDA-MB-175, SW-620, and UACC812 cells.

HL-60 = test: Cell Titer-Glo cell viability: HL-60; format: cell-based, human
Method: as §1, §2, §3

A549 = test: Cell Titer-Glo cell viability: A549; format: cell-based; conditions: Homo sapiens, A549, non-small lung carcinoma
Method: as §1, §2, §3

COLO 205 = test: Cell Titer-Glo cell viability: COLO 205; format: cell-based; conditions: Homo sapiens
Method: as §1, §2, §3

HCT-15 = test: Cell Titer-Glo cell viability: HCT-15; format: cell-based; conditions: Homo sapiens, HCT15, colon carcinoma
Method: as §1, §2, §3

HCT-116 = test: Cell Titer-Glo cell viability: HCT-116; format: cell-based; conditions: Homo sapiens, HCT116, colon carcinoma
Method: as §1, §2, §3

SW-620 = test: Cell Titer-Glo cell viability: SW-620; format: cell-based; conditions: Homo sapiens, SW-620, metastatic colorectal cancer
Method: as §1, §2, §3

BT-20 = test: Cell Titer-Glo cell viability: BT-20; format: cell-based; conditions: Homo sapiens
Method: (§4) Compound nos. […] This panel of cell lines includes an ER− breast carcinoma, primary breast ductal carcinoma, prostate adenocarcinoma, mammary adenocarcinoma, mammary ductal carcinoma, mammary ductal carcinoma, ovary adenocarcinoma, ER+ breast carcinoma, ER-HER2+ mammary ductal carcinoma and an ER+ mammary ductal carcinoma, respectively.
as §1, §3

LNCaP = test: Cell Titer-Glo cell viability: LNCaP; format: cell-based; conditions: Homo sapiens
Method: as §4, §1

MCF-7 = test: Cell Titer-Glo cell viability: MCF-7; format: cell-based; conditions: Homo sapiens, MCF7, breast cancer
Method: as §4, §1, §3

T47D = test: Cell Titer-Glo cell viability: T47D; format: cell-based; conditions: Homo sapiens, breast cancer
Method: as §4, §1, §3

MDA MB 175 = test: Cell Titer-Glo cell viability: MDA MB 175; format: cell-based; conditions: MDA-MB-175, breast cancer; 72 h incubation, Cell Titer-Glo
Method: as §4, §1, §3
(§5) The inhibitory effects of Compound 8a were tested in two cell lines.

MDA MB 231 = test: Cell Titer-Glo cell viability: MDA MB 231; format: cell-based; conditions: Homo sapiens, MDAMB231, breast cancer, 72 h incubation, Cell Titer-Glo
Method: as §4, §1, §3

OVCAR-3 = test: Cell Titer-Glo cell viability: OVCAR-3; format: cell-based; conditions: Homo sapiens, OVCAR3, ovarian cancer
Method: as §4, §1, §3

UACC 812 = test: Cell Titer-Glo cell viability: UACC 812; format: cell-based; conditions: Homo sapiens
Method: as §4, §1, §3, §5

HCC 1187 = test: Cell Titer-Glo cell viability: HCC 1187; format: cell-based; conditions: Homo sapiens
Method: as §4, §1, §3

AXL = target: T1, AXL (Homo sapiens, UniProt P30530); test: Caliper kinase profiling: AXL; conditions: 0.01 μM
T1 sequence (P30530 26-894): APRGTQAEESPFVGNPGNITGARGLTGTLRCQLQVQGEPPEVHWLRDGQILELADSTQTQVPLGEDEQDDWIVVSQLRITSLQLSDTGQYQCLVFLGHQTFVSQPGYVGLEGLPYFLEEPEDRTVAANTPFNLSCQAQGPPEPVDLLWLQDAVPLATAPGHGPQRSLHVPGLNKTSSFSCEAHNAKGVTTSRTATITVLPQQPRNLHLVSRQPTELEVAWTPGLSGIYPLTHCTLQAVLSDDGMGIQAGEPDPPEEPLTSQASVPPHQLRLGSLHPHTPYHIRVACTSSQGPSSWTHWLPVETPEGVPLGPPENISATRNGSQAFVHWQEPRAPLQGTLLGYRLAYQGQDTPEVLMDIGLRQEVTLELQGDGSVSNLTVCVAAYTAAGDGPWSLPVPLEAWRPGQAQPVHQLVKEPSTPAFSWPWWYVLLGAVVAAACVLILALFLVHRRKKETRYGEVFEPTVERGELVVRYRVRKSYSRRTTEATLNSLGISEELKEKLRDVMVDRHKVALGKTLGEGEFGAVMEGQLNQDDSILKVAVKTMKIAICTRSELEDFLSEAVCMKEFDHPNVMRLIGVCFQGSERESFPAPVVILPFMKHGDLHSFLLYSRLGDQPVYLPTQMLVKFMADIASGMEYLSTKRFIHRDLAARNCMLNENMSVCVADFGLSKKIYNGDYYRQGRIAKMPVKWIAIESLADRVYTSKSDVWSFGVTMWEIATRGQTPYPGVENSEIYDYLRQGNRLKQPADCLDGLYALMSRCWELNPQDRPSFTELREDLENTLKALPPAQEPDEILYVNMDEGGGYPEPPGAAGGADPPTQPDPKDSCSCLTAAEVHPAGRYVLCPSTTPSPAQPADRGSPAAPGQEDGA
Method: (§6) The compound was tested at concentrations of 1.0×10^−8 and 1.0×10^−9 M in the RapidKinase192™ panel in duplicate. […] The screening was performed using the Caliper EZReader2, a 4-sipper LabChip, and ProfilerPro Kinase Selectivity Assay Kits 1 and 2. The assay measures the conversion of a fluorescent peptide substrate to a phosphorylated product. Briefly, the reaction mixture was introduced through a capillary sipper onto the microfluidic chip, where the substrate and product were electrophoretically separated and detected by laser-induced fluorescence. The time-dependent fluorescence signal indicates the extent of the reaction.
(§7) The kinases tested were AurA, AurB, AurC, AXL, FAK2, IGF1R, InsR, Mer, MET, TrkB and TrkC.
(§8) The assays were conducted using the Caliper LabChip 3000 and a 12-sipper LabChip as described above.

FAK2(PTK2b) = FAK2(PTK2b) (Homo sapiens, UniProt Q14289); test: Caliper kinase assay: FAK2(PTK2b); conditions: 0.01 μM
Method: as §6, §7, §8

NTRK2 (TRKB) = NTRK2 (TRKB) (Homo sapiens, UniProt Q16620); test: Caliper kinase profiling: NTRK2 (TRKB); conditions: 0.01 μM
Method: as §6, §7, §8

TRKC (NTRK3) = TRKC (NTRK3) (Homo sapiens, UniProt Q16288); test: Caliper kinase profiling: TRKC (NTRK3); conditions: 0.01 μM
Method: as §6, §7, §8

ZR-75-1 = test: Cell Titer-Glo cell viability: ZR-75-1; format: cell-based; conditions: Homo sapiens; ZR-75-1, breast cancer; 72 h
Method: as §4, §1

KDR = KDR (Homo sapiens, UniProt P35968); test: Caliper kinase profiling: KDR; format: biochemical; conditions: read-out: Average % Inh @ 1 μM
Method: as §6

IGF1R = IGF1R (Homo sapiens, UniProt P08069); test: Caliper kinase profiling: IGF1R; format: biochemical; design: purchased Caliper LifeSciences (ProfilerPro Kinase Selectivity Assay Kits); conditions: 1 μM, read-out: Average % Inh @ 1 μM
Method: as §6

[2] = 72 h incubation, Cell Titer-Glo
[3] = HT29, colon adenocarcinoma (second entry of the table), 72 h

Chain of IGF1R (P08069 31-1367): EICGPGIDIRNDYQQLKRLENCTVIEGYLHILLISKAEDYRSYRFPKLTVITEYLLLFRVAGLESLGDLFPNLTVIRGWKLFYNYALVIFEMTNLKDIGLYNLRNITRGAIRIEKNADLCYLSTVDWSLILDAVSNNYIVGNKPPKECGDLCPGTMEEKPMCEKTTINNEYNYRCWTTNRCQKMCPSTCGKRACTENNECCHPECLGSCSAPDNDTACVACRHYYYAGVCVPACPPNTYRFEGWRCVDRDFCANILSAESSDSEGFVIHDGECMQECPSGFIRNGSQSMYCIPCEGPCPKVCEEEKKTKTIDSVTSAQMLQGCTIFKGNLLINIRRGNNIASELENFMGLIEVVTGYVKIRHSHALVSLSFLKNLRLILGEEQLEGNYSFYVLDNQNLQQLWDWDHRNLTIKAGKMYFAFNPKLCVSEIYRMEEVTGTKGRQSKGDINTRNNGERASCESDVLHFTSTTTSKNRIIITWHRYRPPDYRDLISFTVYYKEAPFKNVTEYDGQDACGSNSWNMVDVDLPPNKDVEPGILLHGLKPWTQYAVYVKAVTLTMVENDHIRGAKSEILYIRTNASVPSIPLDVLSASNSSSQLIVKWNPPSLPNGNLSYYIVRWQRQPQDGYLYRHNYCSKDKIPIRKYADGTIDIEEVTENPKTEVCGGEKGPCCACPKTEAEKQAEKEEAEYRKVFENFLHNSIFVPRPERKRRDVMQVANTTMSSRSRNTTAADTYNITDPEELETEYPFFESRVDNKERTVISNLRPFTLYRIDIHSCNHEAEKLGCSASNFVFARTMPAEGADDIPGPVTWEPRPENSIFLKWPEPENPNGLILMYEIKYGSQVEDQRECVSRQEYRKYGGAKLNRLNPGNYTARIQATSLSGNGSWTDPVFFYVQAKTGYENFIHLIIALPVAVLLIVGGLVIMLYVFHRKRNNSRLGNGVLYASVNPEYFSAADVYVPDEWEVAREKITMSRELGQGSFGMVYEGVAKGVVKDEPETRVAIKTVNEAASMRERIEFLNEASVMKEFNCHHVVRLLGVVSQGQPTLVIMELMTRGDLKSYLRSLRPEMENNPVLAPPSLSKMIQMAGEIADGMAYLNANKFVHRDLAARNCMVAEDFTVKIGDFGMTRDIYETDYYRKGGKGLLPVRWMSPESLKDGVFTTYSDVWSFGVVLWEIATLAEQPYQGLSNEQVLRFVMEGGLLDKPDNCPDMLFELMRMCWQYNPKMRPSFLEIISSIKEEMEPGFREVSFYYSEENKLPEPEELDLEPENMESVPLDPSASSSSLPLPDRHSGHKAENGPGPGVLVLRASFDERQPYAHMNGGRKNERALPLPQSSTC
Chain of KDR (P35968 20-1356): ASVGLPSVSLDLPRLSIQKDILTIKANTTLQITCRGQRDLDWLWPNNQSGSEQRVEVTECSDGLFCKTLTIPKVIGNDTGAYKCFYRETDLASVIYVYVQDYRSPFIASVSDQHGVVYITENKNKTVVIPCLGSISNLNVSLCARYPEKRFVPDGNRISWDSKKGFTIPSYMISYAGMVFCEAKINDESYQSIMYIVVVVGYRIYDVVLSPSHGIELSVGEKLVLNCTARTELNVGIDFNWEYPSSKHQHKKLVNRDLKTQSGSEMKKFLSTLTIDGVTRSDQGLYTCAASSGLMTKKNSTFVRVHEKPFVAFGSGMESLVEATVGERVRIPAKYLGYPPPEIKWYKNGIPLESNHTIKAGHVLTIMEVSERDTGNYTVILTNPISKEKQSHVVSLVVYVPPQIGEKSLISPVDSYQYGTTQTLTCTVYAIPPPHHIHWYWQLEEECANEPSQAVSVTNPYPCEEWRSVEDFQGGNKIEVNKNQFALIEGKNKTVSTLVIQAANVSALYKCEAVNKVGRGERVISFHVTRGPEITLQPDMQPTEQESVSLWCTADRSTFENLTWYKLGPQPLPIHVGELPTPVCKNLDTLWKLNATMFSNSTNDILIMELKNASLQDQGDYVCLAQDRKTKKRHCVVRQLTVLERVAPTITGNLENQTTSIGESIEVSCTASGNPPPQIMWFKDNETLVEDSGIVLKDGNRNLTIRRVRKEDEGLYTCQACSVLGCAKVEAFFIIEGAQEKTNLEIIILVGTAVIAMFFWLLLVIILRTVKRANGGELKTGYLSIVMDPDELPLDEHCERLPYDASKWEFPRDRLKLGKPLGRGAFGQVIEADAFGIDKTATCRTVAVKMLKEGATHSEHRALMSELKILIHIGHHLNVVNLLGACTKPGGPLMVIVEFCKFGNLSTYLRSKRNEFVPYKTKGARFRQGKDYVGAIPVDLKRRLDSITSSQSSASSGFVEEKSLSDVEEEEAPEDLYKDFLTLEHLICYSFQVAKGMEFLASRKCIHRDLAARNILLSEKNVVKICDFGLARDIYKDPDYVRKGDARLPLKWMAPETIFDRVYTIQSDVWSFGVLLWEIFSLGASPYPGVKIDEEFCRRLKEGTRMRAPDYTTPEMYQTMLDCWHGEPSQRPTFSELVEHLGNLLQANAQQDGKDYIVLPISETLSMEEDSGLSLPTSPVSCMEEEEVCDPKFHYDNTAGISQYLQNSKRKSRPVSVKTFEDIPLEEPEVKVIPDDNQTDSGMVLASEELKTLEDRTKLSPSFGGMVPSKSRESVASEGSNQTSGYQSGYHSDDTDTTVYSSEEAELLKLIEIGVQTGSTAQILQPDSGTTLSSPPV
Chain of TRKC (NTRK3) (Q16288 32-839): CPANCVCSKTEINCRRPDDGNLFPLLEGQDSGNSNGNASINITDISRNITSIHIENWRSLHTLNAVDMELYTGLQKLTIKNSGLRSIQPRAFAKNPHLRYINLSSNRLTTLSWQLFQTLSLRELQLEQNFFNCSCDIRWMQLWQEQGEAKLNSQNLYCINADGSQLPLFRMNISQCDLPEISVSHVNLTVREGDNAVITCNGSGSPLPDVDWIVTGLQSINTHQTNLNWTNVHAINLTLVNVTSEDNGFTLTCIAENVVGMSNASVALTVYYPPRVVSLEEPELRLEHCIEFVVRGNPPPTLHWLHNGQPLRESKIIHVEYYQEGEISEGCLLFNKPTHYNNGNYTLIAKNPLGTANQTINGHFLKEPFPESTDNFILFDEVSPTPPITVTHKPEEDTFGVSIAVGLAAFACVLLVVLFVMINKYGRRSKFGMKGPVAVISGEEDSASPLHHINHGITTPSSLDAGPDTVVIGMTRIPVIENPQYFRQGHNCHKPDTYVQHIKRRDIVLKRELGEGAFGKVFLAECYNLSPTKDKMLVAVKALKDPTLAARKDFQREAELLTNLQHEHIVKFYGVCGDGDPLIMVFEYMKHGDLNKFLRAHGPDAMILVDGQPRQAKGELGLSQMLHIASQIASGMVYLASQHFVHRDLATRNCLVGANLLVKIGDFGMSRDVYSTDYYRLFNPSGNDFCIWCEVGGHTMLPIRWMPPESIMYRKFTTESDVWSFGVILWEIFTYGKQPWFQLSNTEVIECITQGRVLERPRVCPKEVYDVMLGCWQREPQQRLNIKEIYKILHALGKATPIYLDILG
Chain of NTRK2 (TRKB) (Q16620 32-822): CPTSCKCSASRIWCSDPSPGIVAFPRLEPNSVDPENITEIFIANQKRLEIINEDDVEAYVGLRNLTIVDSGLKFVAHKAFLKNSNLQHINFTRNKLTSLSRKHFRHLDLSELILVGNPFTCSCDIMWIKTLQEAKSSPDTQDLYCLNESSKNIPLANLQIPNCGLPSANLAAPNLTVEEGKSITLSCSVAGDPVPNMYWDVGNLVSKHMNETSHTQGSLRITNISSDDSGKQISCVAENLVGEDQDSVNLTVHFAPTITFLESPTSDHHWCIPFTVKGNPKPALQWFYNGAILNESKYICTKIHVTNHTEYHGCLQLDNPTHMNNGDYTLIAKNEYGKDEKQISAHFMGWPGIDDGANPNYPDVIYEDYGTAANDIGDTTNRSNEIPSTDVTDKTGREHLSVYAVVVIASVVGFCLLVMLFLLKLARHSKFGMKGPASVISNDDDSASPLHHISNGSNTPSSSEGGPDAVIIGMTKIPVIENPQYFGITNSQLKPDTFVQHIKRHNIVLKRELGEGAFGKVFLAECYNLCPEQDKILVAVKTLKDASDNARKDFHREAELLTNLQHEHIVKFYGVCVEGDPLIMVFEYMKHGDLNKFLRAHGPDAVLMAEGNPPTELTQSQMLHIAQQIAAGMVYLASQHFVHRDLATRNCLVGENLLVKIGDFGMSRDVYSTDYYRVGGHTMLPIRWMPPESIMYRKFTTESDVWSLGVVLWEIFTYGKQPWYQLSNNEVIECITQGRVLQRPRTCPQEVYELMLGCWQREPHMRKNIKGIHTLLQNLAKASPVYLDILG

O=C(Nc1ccc(F)nc1)C1CC(O)CN1c1nc2c(c(Nc3cc(C4CC4)[nH]n3)n1)CCC2 (single isomer, unassigned) [Compound 10a]
phosphorylated AKT levels normalized to actin levels (pAKT/actin) ([1]; 1 nM compound 2 h): 0.54 | phosphorylated AKT levels normalized to actin levels (pAKT/actin) ([1]; 10 nM compound 2 h): 0.00 | phosphorylated AKT levels normalized to actin levels (pAKT/actin) ([1]; 100 nM compound 2 h): 0.01 | IC50 (HT-29; HT-29, colon adenocarcinoma, 72 h incubation, Cell Titer-Glo): < 0.1 µM | IC50 (HL-60; Homo sapiens, HL-60, 72 h, HL60, promyelocytic leukemia, 72 h incubation, Cell Titer-Glo): 0.1 µM | IC50 (A549; A549, 72 h, 72 h incubation, Cell Titer-Glo): < 10 µM | IC50 (COLO 205; COLO 205, 72 h, COLO205, colon cancer, 72 h incubation, Cell Titer-Glo): < 0.1 µM | IC50 (HCT-15; HCT-15, 72 h, 72 h incubation, Cell Titer-Glo): < 100 µM | IC50 (HCT-116; [2]): 10 µM | IC50 (SW-620; SW-620, 72 h, 72 h incubation, Cell Titer-Glo): < 10 µM | IC50 (BT-20; BT-20, breast cancer, 72 h incubation, Cell Titer-Glo): < 10 µM | IC50 (LNCaP; Prostate cancer, 72 h incubation, Cell Titer-Glo): < 1 µM | IC50 (MCF-7; [2]): < 1 µM | IC50 (T47D; [2]): 1 µM | IC50 (MDA MB 175): < 10 µM | IC50 (MDA MB 231): 10 µM | IC50 (OVCAR-3; [2]): 1 µM | IC50 (UACC 812; UACC 812, breast cancer, 72 h incubation, Cell Titer-Glo): < 10 µM | IC50 (HCC 1187; HCC1187, HCC-1187, breast cancer, 72 h incubation, Cell Titer-Glo): < 1 µM | inhibition of AXL in panel of 11 kinases (AXL): strongly inhibited | inhibition of FAK2 in panel of 11 kinases (FAK2(PTK2b)): strongly inhibited | inhibition of TrkB in panel of 11 kinases (NTRK2 (TRKB)): strongly inhibited | inhibition of TrkC in panel of 11 kinases (TRKC (NTRK3)): strongly inhibited

C[C@@]1(C(=O)Nc2ccc(F)nc2)CCCN1c1nc(Nc2cc(C3CC3)n[nH]2)c2cccn2n1 [BMS-754807, (S)-1-(4-(5-cyclopropyl-1H-pyrazol-3-ylamino)pyrrolo[1,2-f][1,2,4]triazin-2-yl)-N-(6-fluoropyridin-3-yl)-2-methylpyrrolidine-2-carboxamide, reference compound]
phosphorylated AKT levels normalized to actin levels (pAKT/actin) ([1]; 10 nM compound 2 h): 0.09 | phosphorylated AKT levels normalized to actin levels (pAKT/actin) ([1]; 100 nM compound 2 h): 0.02 | IC50 (HT-29; [3]): < 1 µM | IC50 (HT-29; HT-29, colon cancer, 72 h): < 10 µM | IC50 (HL-60; HL-60, promyelocytic leukemia, 72 h): < 10 µM | IC50 (HL-60; Homo sapiens, HL-60, HL60, promyelocytic leukemia (second entry of the table), 72 h): < 10 µM | IC50 (A549; 72 h): < 10 µM | IC50 (COLO 205; COLO-205, colon adenocarcinoma, 72 h): < 1 µM | IC50 (HCT-15; HCT-15, 72 h): < 100 µM | IC50 (HCT-116; 72 h): 10 µM | IC50 (SW-620; 72 h): 1 µM | IC50 (BT-20; BT-20, BT20, breast cancer, 72 h): < 100 µM | IC50 (LNCaP; prostate cancer, 72 h): < 10 µM | IC50 (MCF-7; 72 h): 0.1 µM | IC50 (T47D; 72 h): < 10 µM | IC50 (OVCAR-3; 72 h): < 10 µM | IC50 (UACC 812; UACC-812, UACC812, breast cancer, 72 h): < 100 µM | IC50 (HCC 1187; HCC1187, breast cancer, 72 h): < 10 µM | IC50 (ZR-75-1): > 100 µM

CC1(O)CC(c2nc(-c3ccc4ccc(-c5ccccc5)nc4c3)c3c(N)nccn23)C1 (stereo not shown) [OSI-906, 3-[8-Amino-1-(2-phenyl-7-quinolyl)imidazo[1,5-a]pyrazin-3-yl]-1-methyl-cyclobutanol, reference compound]
phosphorylated AKT levels normalized to actin levels (pAKT/actin) ([1]; 1 nM compound 2 h): 0.85 | phosphorylated AKT levels normalized to actin levels (pAKT/actin) ([1]; 100 nM compound 2 h): 0.40 | inhibition at 1 µM (KDR): 40 to 59% | IC50 (HT-29; [3]): < 10 µM | IC50 (HT-29; HT-29, colon cancer, 72 h): < 100 µM | IC50 (HL-60; Homo sapiens, HL-60, 72 h, HL60, promyelocytic leukemia (second entry of the table), 72 h): < 10 µM | IC50 (HL-60; Homo sapiens, HL-60, 72 h, HL-60, promyelocytic leukemia, 72 h): < 100 µM | IC50 (A549; A549, 72 h, 72 h): 10 µM | IC50 (COLO 205; COLO 205, 72 h, COLO-205, colon adenocarcinoma, 72 h): 1 µM | IC50 (HCT-15; HCT-15, 72 h, 72 h): < 100 µM | IC50 (HCT-116; 72 h): < 100 µM | IC50 (SW-620; SW-620, 72 h, 72 h): < 100 µM | inhibition at 1 µM (IGF1R): > 60%
